The source of these data is ChEMBL document CHEMBL4340536, “Design, synthesis and structure-activity relationship study of aminopyridine derivatives as novel inhibitors of Janus kinase 2” (Bioorg Med Chem Lett, 2019).

Data set [1] concerns the target T1, Tyrosine-protein kinase JAK2 (Homo sapiens, UniProt O60674). As to the kind of experiment: Inhibition of human recombinant N-terminal hexahistidine tagged JAK2 JH1 catalytic domain (835 to 1132 residues) expressed in baculovirus infected Sf9 cells using Tyr6 peptide as substrate incubated for 30 secs under shaking condition measured after 1 hr by Z'-LYTE assay.

The test system of a further data set is HEL. The experiment in a line: Antiproliferative activity against HEL cells harboring JAK2 V617F mutant measured after 3 days by CCK8 assay. Format: functional, cell-based. The following applies: Homo sapiens, 72 h.
Data set [2] can be described thus: Toxicity in incomplete Freund's adjuvant-induced Wistar rat arthritic model assessed as effect on body weight growth at 0.3 mg/kg, po administered daily for 28 days starting from 8 days post-immunization measured every 3 days during compound dosing. It is filed as organism-based. The following applies: in vivo.
Data set [3] has as its system Rattus norvegicus. As to the kind of experiment: Antiarthritic activity in incomplete Freund's adjuvant-induced arthritis model Wistar rat at 0.3 mg/kg, po administered daily for 28 days starting from 8 days post-immunization measured daily during compound. Format: functional, organism-based.
Data set [4] has as its target T1, Tyrosine-protein kinase JAK2. As to the kind of experiment: Inhibition of human recombinant N-terminal hexahistidine tagged JAK2 JH1 catalytic domain (835 to 1132 residues) expressed in baculovirus infected Sf9 cells at 1 uM using Tyr6 peptide as substrate incubated for 30 secs under shaking condition measured after 1 hr by Z'-LYTE assay relative to control.
For data set [5], the target named is Tyrosine-protein kinase JAK1 (Homo sapiens, UniProt P23458). As to the kind of experiment: Inhibition of human recombinant N-terminal hexahistidine tagged JAK1 JH1 catalytic domain (854 to 1154 residues) expressed in baculovirus infected Sf9 cells using Tyr6 peptide as substrate incubated for 30 secs under shaking condition measured after 1 hr by Z'-LYTE assay.

Data set [6] deals with T2, Tyrosine-protein kinase JAK3 (Homo sapiens, UniProt P52333).
T2 sequence (P52333 whole entry): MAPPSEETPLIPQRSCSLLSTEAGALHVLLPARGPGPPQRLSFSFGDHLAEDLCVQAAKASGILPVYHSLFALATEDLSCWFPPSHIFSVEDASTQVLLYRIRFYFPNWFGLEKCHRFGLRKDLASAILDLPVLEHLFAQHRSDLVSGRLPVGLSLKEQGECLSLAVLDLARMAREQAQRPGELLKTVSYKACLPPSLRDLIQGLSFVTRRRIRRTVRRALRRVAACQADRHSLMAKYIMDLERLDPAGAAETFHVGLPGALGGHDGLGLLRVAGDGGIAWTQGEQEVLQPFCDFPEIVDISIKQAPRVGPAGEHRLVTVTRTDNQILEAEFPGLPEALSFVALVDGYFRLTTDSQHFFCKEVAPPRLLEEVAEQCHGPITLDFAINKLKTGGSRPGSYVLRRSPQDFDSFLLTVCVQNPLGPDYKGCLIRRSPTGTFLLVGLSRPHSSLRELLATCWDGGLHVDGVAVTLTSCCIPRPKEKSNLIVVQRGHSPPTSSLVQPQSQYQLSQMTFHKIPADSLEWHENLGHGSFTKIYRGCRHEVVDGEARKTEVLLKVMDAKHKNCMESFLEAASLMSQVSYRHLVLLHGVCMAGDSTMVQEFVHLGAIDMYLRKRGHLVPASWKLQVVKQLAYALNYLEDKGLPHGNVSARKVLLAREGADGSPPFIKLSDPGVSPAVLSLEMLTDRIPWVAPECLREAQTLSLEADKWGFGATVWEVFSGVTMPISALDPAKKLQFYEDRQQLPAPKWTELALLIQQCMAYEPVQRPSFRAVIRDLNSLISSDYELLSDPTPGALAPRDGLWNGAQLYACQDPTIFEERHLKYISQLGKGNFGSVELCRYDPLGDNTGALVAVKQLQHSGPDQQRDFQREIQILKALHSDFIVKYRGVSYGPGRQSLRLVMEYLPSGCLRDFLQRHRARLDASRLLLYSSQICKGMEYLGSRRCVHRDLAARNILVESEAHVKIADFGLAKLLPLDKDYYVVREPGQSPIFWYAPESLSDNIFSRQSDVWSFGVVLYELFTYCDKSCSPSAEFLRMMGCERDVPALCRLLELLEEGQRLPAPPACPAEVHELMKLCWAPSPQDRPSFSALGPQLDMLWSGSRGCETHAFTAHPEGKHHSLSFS
As to the kind of experiment: Inhibition of human recombinant C-terminal hexahistidine tagged JAK3 JH1 catalytic domain (811 to 1124 residues) expressed in baculovirus infected Sf9 cells using Tyr6 peptide as substrate incubated for 30 secs under shaking condition measured after 1 hr by Z'-LYTE assay.

Data set [7] has as its target Non-receptor tyrosine-protein kinase TYK2 (Homo sapiens, UniProt P29597). The experiment in a line: Inhibition of TYK2 (unknown origin) using peptide as substrate preincubated for 10 mins followed by substrate addition by mobility shift assay.
Data set [8] is filed under the species Homo sapiens. The experiment in a line: Selectivity ratio of IC50 for human recombinant N-terminal hexahistidine tagged JAK1 JH1 catalytic domain (854 to 1154 residues) expressed in baculovirus infected Sf9 cells to IC50 for human recombinant N-terminal hexahistidine tagged JAK2 JH1 catalytic domain (835 to 1132 residues) expressed in baculovirus infected Sf9 cells.

Data set [9] is filed under the species Homo sapiens. As to the kind of experiment: Selectivity ratio of IC50 for human recombinant C-terminal hexahistidine tagged JAK3 JH1 catalytic domain (811 to 1124 residues) expressed in baculovirus infected Sf9 cells to IC50 for human recombinant N-terminal hexahistidine tagged JAK2 JH1 catalytic domain (835 to 1132 residues) expressed in baculovirus infected Sf9 cells.

The species entered for data set [10] is Homo sapiens. As to the kind of experiment: Selectivity ratio of IC50 for TYK2 (unknown origin) to IC50 for human recombinant N-terminal hexahistidine tagged JAK2 JH1 catalytic domain (835 to 1132 residues) expressed in baculovirus infected Sf9 cells.
Data set [11] can be described thus: Toxicity in incomplete Freund's adjuvant-induced Wistar rat arthritic model assessed as effect on body weight growth at 10 to 50 mg/kg, po administered daily for 28 days starting from 8 days post-immunization measured every 3 days during compound dosing. Format: organism-based. The following applies: in vivo.
Data set [12] concerns Rattus norvegicus. The experiment in a line: Antiarthritic activity in incomplete Freund's adjuvant-induced Wistar rat arthritic model assessed as decrease in arthritis swelling score at 50 mg/kg, po administered daily for 28 days starting from 8 days post-immunization measured daily during compound dosing. Format: functional, organism-based.
Data set [13] relates to Rattus norvegicus. The experiment in a line: Antiarthritic activity in po dosed incomplete Freund's adjuvant-induced Wistar rat arthritic model assessed as reduction in foot swelling administered daily for 28 days starting from 8 days post-immunization measured daily during compound dosing. It is filed as functional, organism-based.
Data set [14] concerns Rattus norvegicus. As to the kind of experiment: Antiarthritic activity in incomplete Freund's adjuvant-induced Wistar rat arthritic model assessed as decrease in arthritic incidences at 10 to 50 mg/kg, po administered daily for 28 days starting from 8 days post-immunization measured daily during compound dosing. It is filed as functional, organism-based.
Data set [15] has as its target T1, Tyrosine-protein kinase JAK2. The following applies: Sf9.

Structures are written as SMILES. The source made the active and inactive calls. The rule behind the calls is not given here.

Sequence of Tyrosine-protein kinase JAK1 (P23458 whole entry, the tested form may be a part): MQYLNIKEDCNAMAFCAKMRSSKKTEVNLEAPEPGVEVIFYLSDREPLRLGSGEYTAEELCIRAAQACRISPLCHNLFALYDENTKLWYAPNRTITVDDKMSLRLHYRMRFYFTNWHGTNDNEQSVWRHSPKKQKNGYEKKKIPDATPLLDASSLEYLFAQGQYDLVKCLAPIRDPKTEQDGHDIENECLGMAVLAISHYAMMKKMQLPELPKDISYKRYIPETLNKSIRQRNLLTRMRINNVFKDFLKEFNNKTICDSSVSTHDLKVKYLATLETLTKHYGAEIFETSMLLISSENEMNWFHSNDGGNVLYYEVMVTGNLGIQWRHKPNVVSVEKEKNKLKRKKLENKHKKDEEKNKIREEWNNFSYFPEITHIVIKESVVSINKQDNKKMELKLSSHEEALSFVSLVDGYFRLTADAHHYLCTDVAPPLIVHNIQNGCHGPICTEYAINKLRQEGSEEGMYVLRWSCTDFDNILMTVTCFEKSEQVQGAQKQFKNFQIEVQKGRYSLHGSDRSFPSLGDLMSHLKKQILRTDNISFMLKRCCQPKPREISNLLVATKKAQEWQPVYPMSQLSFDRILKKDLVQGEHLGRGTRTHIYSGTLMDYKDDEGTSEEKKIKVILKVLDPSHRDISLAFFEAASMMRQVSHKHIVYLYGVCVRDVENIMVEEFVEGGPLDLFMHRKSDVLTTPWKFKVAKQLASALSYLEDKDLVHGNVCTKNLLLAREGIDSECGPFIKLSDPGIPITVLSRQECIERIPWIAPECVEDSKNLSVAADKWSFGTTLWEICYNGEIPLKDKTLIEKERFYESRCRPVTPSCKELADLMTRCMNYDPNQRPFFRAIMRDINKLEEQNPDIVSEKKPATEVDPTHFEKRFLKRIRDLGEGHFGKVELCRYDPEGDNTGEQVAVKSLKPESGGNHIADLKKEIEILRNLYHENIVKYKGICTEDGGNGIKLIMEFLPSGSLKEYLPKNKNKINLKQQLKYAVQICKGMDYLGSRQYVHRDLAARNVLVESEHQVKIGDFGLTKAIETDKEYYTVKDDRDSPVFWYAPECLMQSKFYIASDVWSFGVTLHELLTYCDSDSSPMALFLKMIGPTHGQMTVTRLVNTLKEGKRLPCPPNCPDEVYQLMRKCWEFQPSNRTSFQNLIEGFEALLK
Sequence of Non-receptor tyrosine-protein kinase TYK2 (P29597 whole entry, the tested form may be a part): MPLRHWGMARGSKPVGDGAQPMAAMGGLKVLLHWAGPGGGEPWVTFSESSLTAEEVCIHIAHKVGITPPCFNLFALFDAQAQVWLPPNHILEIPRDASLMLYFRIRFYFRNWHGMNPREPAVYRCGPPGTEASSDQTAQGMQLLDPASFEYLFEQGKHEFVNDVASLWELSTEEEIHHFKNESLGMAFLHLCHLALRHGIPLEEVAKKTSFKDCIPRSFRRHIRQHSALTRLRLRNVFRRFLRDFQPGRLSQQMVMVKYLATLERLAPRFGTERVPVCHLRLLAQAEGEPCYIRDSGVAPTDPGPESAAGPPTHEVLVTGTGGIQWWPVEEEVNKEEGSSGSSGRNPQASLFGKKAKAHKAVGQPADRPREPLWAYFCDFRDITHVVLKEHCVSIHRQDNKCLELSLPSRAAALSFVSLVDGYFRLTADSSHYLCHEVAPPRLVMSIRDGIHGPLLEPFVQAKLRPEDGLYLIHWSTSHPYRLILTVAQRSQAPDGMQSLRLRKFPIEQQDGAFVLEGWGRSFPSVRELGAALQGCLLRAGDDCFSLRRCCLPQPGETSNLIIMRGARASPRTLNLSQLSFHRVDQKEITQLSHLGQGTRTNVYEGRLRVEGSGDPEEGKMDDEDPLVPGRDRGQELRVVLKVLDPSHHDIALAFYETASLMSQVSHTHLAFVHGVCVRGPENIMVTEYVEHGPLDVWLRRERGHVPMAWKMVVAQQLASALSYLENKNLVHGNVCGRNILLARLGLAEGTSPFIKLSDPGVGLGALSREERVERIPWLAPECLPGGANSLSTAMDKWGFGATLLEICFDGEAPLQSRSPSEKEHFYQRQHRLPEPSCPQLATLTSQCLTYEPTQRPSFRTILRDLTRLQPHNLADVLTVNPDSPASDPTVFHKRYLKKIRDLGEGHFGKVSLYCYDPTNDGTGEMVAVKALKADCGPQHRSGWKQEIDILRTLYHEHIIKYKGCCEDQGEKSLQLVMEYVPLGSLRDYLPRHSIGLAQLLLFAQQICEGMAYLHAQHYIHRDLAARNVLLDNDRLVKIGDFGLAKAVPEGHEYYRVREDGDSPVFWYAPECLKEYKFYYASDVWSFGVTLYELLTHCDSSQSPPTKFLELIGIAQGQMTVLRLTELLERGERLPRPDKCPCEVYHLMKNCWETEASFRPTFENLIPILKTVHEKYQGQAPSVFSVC
T1 sequence (O60674 whole entry, the tested form may be a part): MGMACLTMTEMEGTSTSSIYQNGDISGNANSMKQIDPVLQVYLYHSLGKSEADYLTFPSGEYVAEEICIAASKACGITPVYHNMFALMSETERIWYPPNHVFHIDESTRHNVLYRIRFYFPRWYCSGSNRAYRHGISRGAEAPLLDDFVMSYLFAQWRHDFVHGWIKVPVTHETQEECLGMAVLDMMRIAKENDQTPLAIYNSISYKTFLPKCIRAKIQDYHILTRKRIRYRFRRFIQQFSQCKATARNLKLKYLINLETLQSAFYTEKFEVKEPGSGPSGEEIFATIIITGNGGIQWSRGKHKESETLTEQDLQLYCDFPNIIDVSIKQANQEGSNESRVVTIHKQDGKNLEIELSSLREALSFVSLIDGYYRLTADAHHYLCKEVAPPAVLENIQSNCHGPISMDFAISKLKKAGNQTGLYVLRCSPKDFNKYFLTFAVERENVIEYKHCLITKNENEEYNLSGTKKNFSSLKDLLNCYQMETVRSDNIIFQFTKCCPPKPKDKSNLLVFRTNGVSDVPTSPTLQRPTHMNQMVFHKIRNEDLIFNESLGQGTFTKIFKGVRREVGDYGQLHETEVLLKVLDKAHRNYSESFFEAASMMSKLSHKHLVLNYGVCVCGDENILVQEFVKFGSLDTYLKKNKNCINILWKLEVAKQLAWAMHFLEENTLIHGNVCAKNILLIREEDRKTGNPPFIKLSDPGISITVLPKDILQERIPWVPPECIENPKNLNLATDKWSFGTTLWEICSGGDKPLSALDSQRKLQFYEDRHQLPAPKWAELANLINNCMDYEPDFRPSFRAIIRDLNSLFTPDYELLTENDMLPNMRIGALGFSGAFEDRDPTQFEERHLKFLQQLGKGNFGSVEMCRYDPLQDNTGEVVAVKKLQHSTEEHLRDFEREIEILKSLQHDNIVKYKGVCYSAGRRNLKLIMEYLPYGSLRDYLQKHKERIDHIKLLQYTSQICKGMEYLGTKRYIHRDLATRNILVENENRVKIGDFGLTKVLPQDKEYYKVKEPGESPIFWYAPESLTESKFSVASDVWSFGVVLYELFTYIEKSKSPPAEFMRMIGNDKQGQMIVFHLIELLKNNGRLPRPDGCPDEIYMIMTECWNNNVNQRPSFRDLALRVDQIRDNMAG

For `CC(Oc1cc(-c2cccnc2)cnc1N)c1c(Cl)ccc(F)c1Cl` (stereo not drawn), the values for the concentration for half-maximal inhibition (IC50) (in data set [1]; in the data set on HEL) were 3050 nM and 20100 nM, respectively.

`CCC(Oc1cc(-c2cnn(C3CCNCC3)c2)cnc1N)c1c(Cl)ccc(F)c1Cl` (stereo not drawn): in the data set on HEL, the 50% inhibitory concentration (IC50) (commonly the concentration at which inhibition is half-maximal) worked out at 9980 nM.

On to `CC(Oc1cc(-c2cnn(C3CCNCC3)c2)cnc1N)c1c(Cl)ccc(F)c1Cl` (stereo not drawn), for which, in the data set on HEL, the IC50 stood at 6580 nM.

On to `CC(Oc1cc(-c2ccc(N3CCNCC3)nc2)cnc1N)c1c(Cl)ccc(F)c1Cl` (stereo not drawn), for which the results for the IC50 (in data set [1]; in the data set on HEL) were 804 nM and 7760 nM, respectively.

On to `CN(Cc1cnc2nc(N)nc(N)c2n1)c1ccc(C(=O)N[C@@H](CCC(=O)O)C(=O)O)cc1` [METHOTREXATE], for which, in data set [2], the Activity entry is “Toxic”. Also, in the data set with Rattus norvegicus [3], the result was Active.

Consider `CC(Nc1cc(-c2cnn(C3CCNCC3)c2)cnc1N)c1c(Cl)ccc(F)c1Cl` (stereo not drawn), for which the IC50 was 126 nM in data set [1] and 10800 nM in the data set with HEL.

`CC(Oc1cc(-c2ccccc2)cnc1N)c1c(Cl)ccc(F)c1Cl` (stereo not drawn): the inhibition – broadly, the change of the read-out against control, counted positive when it falls – in [4] was determined as 7.15%. For the same compound, in the data set with HEL, the half-inhibitory concentration (IC50) is over 100000 nM.

For `CC(Oc1cc(-c2cnn(C3CCNCC3)c2)cnc1N)c1cc(F)ccc1Cl` (stereo not drawn), the IC50 in data set [5] came to 660 nM; in [1], 6 nM; in [6], 513 nM; in [7], 1300 nM; in the data set on HEL, 15000 nM. The Ratio IC50 in the data set listed under Homo sapiens [8] was 110; in the data set listed under Homo sapiens [9], 86; in the data set filed under Homo sapiens [10], 216. The Activity entry in [11] was “Non-Toxic”; in the data set on Rattus norvegicus [13], “Dose-dependent effect”. Also, the outcome with Rattus norvegicus [12] and in the data set on Rattus norvegicus [14] was Active.

The compound `CC(Oc1cc(-c2cccc(C3CCNCC3)c2)cnc1N)c1cc(F)ccc1Cl` (stereo not drawn) registered an IC50 with HEL of 6200 nM.

Turning to `CC(Oc1cc(-c2ccc(N3CCNCC3)cc2)cnc1N)c1cc(F)ccc1Cl` (stereo not drawn), in the data set with HEL, the IC50 stood at 19700 nM.

For `CC(Oc1cc(-c2cn[nH]c2)cnc1N)c1cc(F)ccc1Cl` (stereo not drawn), the IC50 stood at 82 nM in [5], 965 nM in [6], 1450 nM in [7] and 4850 nM with HEL. In addition, the Ratio IC50 in the data set listed under Homo sapiens [8] is 5; in the data set filed under Homo sapiens [9] it was 60; in the data set listed under Homo sapiens [10], 91.

`CC(Oc1cc(-c2cnn(C3CCNCC3)c2)cnc1N)c1ccccc1` (stereo not drawn): the IC50 was determined as 215 nM in [1] and 29600 nM in the data set on HEL.

As for `COc1ccc(F)c(Cl)c1C(C)Oc1cc(-c2cnn(C3CCNCC3)c2)cnc1N` (stereo not drawn), the half-inhibitory concentration (IC50) worked out at 1220 nM in data set [5]; 26 nM in data set [1]; 1760 nM in [6]; 774 nM in [7]; 13600 nM in the data set with HEL. Further, the values for the Ratio IC50 in the data set filed under Homo sapiens [8], in the data set filed under Homo sapiens [9] and in the data set filed under Homo sapiens [10] were 46, 66 and 30, respectively.

For `CC(Oc1cc(-c2cnn(C3CCOCC3)c2)cnc1N)c1c(Cl)ccc(F)c1Cl` (stereo not drawn), the IC50 was 65 nM in [1] and over 100000 nM in the data set with HEL.

`N#CC[C@H](C1CCCC1)n1cc(-c2ncnc3[nH]ccc23)cn1` [RUXOLITINIB] showed an IC50 with HEL of 7640 nM.

As for `CC(Oc1cc(-c2ccc(C3CCNCC3)cc2)cnc1N)c1cc(F)ccc1Cl` (stereo not drawn), in the data set on HEL, the IC50 was found to be 16000 nM.

In the data set with HEL, `CC(Oc1cc(-c2cnn(C3CCNCC3)c2)cnc1N)C1CCCCC1` (stereo not drawn) yielded a half-maximal inhibitory concentration (IC50) of 20900 nM.

Turning to `CC(Oc1cc(-c2cnn(C3CCNCC3)c2)cnc1N)c1c(Cl)cccc1Cl` (stereo not drawn), it took 28400 nM to reach half-maximal inhibition in the data set on HEL (IC50).

In the case of `CC(Oc1cc(-c2cncc(N3CCNCC3)c2)cnc1N)c1c(Cl)ccc(F)c1Cl` (stereo not drawn), the figures for the IC50 (in [1]; in the data set with HEL) were 119 nM and 7450 nM, respectively.

`COc1ccc(F)cc1C(C)Oc1cc(-c2cnn(C3CCNCC3)c2)cnc1N` (stereo not drawn): the concentration for half-maximal inhibition (IC50) in data set [5] stood at 1800 nM; in data set [6] it was 1580 nM; in data set [7], 794 nM; with HEL, 4190 nM. Further, the Ratio IC50 in the data set listed under Homo sapiens [8] stood at 598; in the data set filed under Homo sapiens [9] it was 528; in the data set listed under Homo sapiens [10], 264.

For the compound `C[C@@H](Oc1cc(-c2cnn(C3CCNCC3)c2)cnc1N)c1c(Cl)ccc(F)c1Cl` [CRIZOTINIB], in the data set with HEL, 4720 nM corresponded to half-maximal inhibition (IC50). Besides, the ΔTm (as a rule, the shift of the melting midpoint relative to a reference) in data set [15] stood at 7.88 °C.

Consider `CC(Oc1cc(-c2cccc(N3CCNCC3)c2)cnc1N)c1cc(F)ccc1Cl` (stereo not drawn), for which the IC50 in data set [5] is 120 nM; in data set [6], 2790 nM; in data set [7], 2530 nM; in the data set on HEL, 7200 nM. Moreover, the Ratio IC50 in the data set listed under Homo sapiens [8] was found to be 4; in the data set filed under Homo sapiens [9], 107; in the data set filed under Homo sapiens [10], 94.

In turn, `CC(Oc1cc(-c2ccccc2)cnc1N)c1cc(F)ccc1Cl` (stereo not drawn) had an IC50 in the data set on HEL of over 100000 nM.
